From patent US20240140953A1, “INHIBITORS OF MENIN-MLL INTERACTION” (BIOMEA FUSION, INC., priority 2018, published 2024)
Like-named read-outs stand apart in the source and are kept apart here.

How the values were obtained:
RS4-11 (MLL-AF4) = experiment: LTP assay, CellTiterGlo, T4-T14 (Example 103), RS4-11; assay type: cell-based; settings: for inhibition of cell viability (in words): RS4;11, LTP assay
Experimental: (§1) The day of the experiment (T0) all the cell line suspensions were counted by Cell Viability Analyser, Vi-CELL and properly diluted with fresh medium to obtain the cell density reported in the Test System paragraph.
(§2) Cells were tested after 4 passages after thawing.
(§3) 200 μL/well and 150 μL/well of cell suspension were added into the 0.4 μL/well and 0.3 μL/well compound plates, respectively. • Cell plate containing 200 μL/well suspension was incubated at 37° C. in a humidified incubator with 5% CO2. • From each well of the 150 μL/well cell assay plate, 100 μL were harvested and transferred into a 96-well Optiplate (Perkin Elmer, Cat. n. 6005290) and cell viability was measured as described in 4.3 paragraphs (T0).
(§4) After four days in culture (T4) 150 μL/well of fresh medium were added into a new 0.3 μL/well copy compound plate. • From each well of the 200 μL/well cell assay plate: • 100 μL were sampled for the cell viability measurement as described in 4.3 paragraphs (T4). • 50 μL were harvested and added to the 150 μL/well compound plate prepared as described in the first point to dilute 1:4 the cell suspension. • The cell assay plate diluted and containing 200 μL/well suspension were incubated at 37° C. in a humidified incubator with 5% Co2.
(§5) At T7-T11-T14 it was proceeded as described in T4, with the exception that no further cell dilution was carried out at T14.
(§6) Plates containing the samples to be tested were equilibrated at room temperature for approximately 30 min and then 30 μL/well of the Promega CellTiterGlo® reagent were added.
(§7) Contents will be mixed for 5 min on an orbital shaker to induce cell lysis and then incubated at room temperature for an additional 10 min to stabilize the luminescent signal.
(§8) Luminescence was read by using VictorV (Perkin Elmer) multilabel plate reader using the standard protocol for luminescence in 96 well plate.
(§9) Data were expressed as % of inhibition compared to the 0.2% DMSO negative control, and was calculated as follows: […]
(§10) CRCs were analysed by GraphPad and IC50 values were calculated by non-linear regression using 4 parameter-logistic equation. IC50 (μM) values were reported in the final data table.
(§11) The curve fittings were performed leaving free all the parameters. Any constrain were reported in the results table.

HL-60 = experiment: LTP assay, CellTiterGlo, T4-T14 (Example 103), HL-60; assay type: cell-based; settings: for inhibition of cell viability (in words): HL-60, LTP assay
Experimental: as §1, §2, §3, §4, §5, §6, §7, §8, §9, §10, §11

MOLM-13 [1] = experiment: Long term proliferation assay (Table 3A), MOLM-13; assay type: cell-based; settings: Homo sapiens
Experimental: Example 5b: IC50 determination of compounds of invention in various cell lines (Long Term Proliferation Assay)
The following 5 cell lines are used or can be used for the long term proliferation assay.
(§12) Compounds of invention are tested in the 5 suspension lines by 14-day long-term proliferation assay.
(§13) The compound is tested in 10-pt dose titration (client will determine the starting concentration and the dilution scheme) and the final DMSO concentration is kept at 0.2%.
(§14) Vehicle and media control are also included. All treatments are done in triplicate.
3 plates are used for each cell line and 15 plates are used for the 5 cell lines.
(§15) • 1) On Day 0, in a flat bottom 96-well plate, add 100 μL of cells per well at the densities optimized. • 2) Prepare compounds in DMSO at 500× final concentration. Dilute the compounds with DMSO at the dilution. • 3) Dilute the compounds in media at 3×final concentration. Add 50 μL of compound or DMSO at 3× final concentration to each well. Final volume in each well is 150 μL, and final concentration of DMSO is 0.2%. Also include 3 untreated control wells, by adding 50 μL of media alone. 4) Incubate plates for 96 hours. • 5) Count the cells using the Acumen, with capabilities for 96-well plates. Pipette cells up and down to mix in each well, and add desired volume of cells to a new flat bottom poly-D-lysine 96-well plate. Add Calcein AM at 1 μM final concentration. Let cells sit at RT for 10 mins followed by a quick spin to get cells settled on the bottom of the wells. Incubate the plate for additional 40 mins in the incubator. Take out the plate and read by Acumen. Calculate the cell numbers taken into account the dilution factors. • 6) Split the master plate. To do this take the total viable cell count calculated using step 5). Take the average of the replicates for each dose in order to be used in splitting the cells. • 7) Use a 96 well V-bottom plate to spin down the cells to remove old media and compound to split the cells. Based on the split ratio place the proper amount of media and cells into the V-bottom plate, and spin the plate at 1100 rpm for 5 minutes. • 8) Following the spin remove the media, careful not to disturb the cellpellet. • 9) Re-suspend pellet in 100 μL fresh media, and add to a new 96-well flat bottom plate. • 10) Add fresh compound, in the same manner as Step 3). • 11) Incubate plates for 72 hours. Repeat steps 5)-10) on Day 7. • 12) Incubate plates for 96 hours. Repeat Step 5)-10) on Day 11. • 13) Incubate 72 hours and repeat step 5) to take a final count. • 14) Data Analysis
(§16) To calculate growth for days 4, 7, 11, and 14: • Calculate the split factor for day 4 to 7, day 7 to 11, and day 11-14.

MOLM-13 (MLL-AF9) = experiment: LTP assay, CellTiterGlo, T4-T14 (Example 103), MOLM-13; assay type: cell-based, human; settings: for inhibition of cell viability (in words): MOLM-13, LTP assay
Experimental: as §1, §2, §3, §4, §5, §6, §7, §8, §9, §10, §11

MV4-11 (MLL-AF4) = experiment: LTP assay, CellTiterGlo, T4-T14 (Example 103), MV4-11; assay type: cell-based, human; settings: for inhibition of cell viability (in words): MV4-11, LTP assay
Experimental: as §1, §2, §3, §4, §5, §6, §7, §8, §9, §10, §11

MOLM-13 [2] = experiment: Long term proliferation, InCell (Table 3C), MOLM-13; assay type: cell-based; settings: Homo sapiens, MOLM-13, InCell
Experimental: as §12, §13, §14, §15, §16

MV4-11 = experiment: Long term proliferation, InCell (Table 3C), MV4-11; assay type: cell-based; settings: Homo sapiens, MV4-11, InCell
Experimental: as §12, §13, §14, §15, §16

[3] = Homo sapiens, RS4-11, 96 h, RS4-11 (MLL-AF4), T4 (Day 4), read-out: IC50 T4 (Day 4)
[4] = Homo sapiens, RS4-11, RS4-11 (MLL-AF4), T7, read-out: IC50 T7
[5] = Homo sapiens, RS4-11, RS4-11 (MLL-AF4), T11, read-out: IC50 T11
[6] = HL-60, T4 (Day 4), read-out: IC50 T4 (Day 4)
[7] = Homo sapiens, HL-60, 96 h, HL-60, T4 (Day 4), read-out: IC50 T4 (Day 4)
[8] = Homo sapiens, HL-60, HL-60, T7, read-out: IC50 T7
[9] = Homo sapiens, HL-60, HL-60, T11, read-out: IC50 T11
[10] = Homo sapiens, HL-60, HL-60, T14, read-out: IC50 T14
[11] = 96 h, MOLM-13, Day 4, read-out: MOLM-13 Day 4 IC50
[12] = Homo sapiens, MOLM-13, 96 h, MOLM-13 (MLL-AF9), T4 (Day 4), read-out: IC50 T4 (Day 4)
[13] = Homo sapiens, MOLM-13, MOLM-13 (MLL-AF9), T7, read-out: IC50 T7
[14] = Homo sapiens, MOLM-13, MOLM-13 (MLL-AF9), T11, read-out: IC50 T11
[15] = Homo sapiens, MOLM-13, MOLM-13 (MLL-AF9), T14, read-out: IC50 T14
[16] = MOLM-13 (MLL-AF9), T4 (Day 4), read-out: IC50 T4 (Day 4)
[17] = Homo sapiens, MV4-11, 96 h, MV4-11 (MLL-AF4), T4 (Day 4), read-out: IC50 T4 (Day 4)
[18] = Homo sapiens, MV4-11, MV4-11 (MLL-AF4), T7, read-out: IC50 T7
[19] = Homo sapiens, MV4-11, MV4-11 (MLL-AF4), T11, read-out: IC50 T11
[20] = Homo sapiens, MV4-11, MV4-11 (MLL-AF4), T14, read-out: IC50 T14
[21] = 96 h, Day 4, read-out: Day 4 IC50
[22] = 264 h, Day 11, read-out: Day 11 IC50

IC50 (RS4-11 (MLL-AF4); [3]) [nM] | IC50 (RS4-11 (MLL-AF4); [4]) [nM] | IC50 (RS4-11 (MLL-AF4); [5]) [nM] | IC50 (HL-60; [6]) [nM] | IC50 (HL-60; HL-60, T7, read-out: IC50 T7) [nM] | IC50 (HL-60; [7]) [nM] | IC50 (HL-60; [8]) [nM] | IC50 (HL-60; [9]) [nM] | IC50 (HL-60; [10]) [nM] | IC50 (MOLM-13 [1]; [11]) [nM] | IC50 (MOLM-13 (MLL-AF9); [12]) [nM] | IC50 (MOLM-13 (MLL-AF9); [13]) [nM] | IC50 (MOLM-13 (MLL-AF9); [14]) [nM] | IC50 (MOLM-13 (MLL-AF9); [15]) [nM] | IC50 (MOLM-13 (MLL-AF9); [16]) [nM] | IC50 (MV4-11 (MLL-AF4); [17]) [nM] | IC50 (MV4-11 (MLL-AF4); [18]) [nM] | SMILES | inhibition of cell viability (in words) (RS4-11 (MLL-AF4)) | inhibition of cell viability (in words) (HL-60) | inhibition of cell viability (in words) (MOLM-13 (MLL-AF9)) | further results
580 | 420 | 260 | > 10000 | > 10000 | > 5000 | > 5000 | > 5000 | > 5000 | 710 | > 5000 | 5750 | 562 | > 5000 | > 10000 | 1550 | 1260 | O=C(Cc1cc(-c2cccnc2)n[nH]1)Nc1ccc(-c2nc3c(N4CCOCC4)ncnc3[nH]2)cc1 [Compound 12, N-{4-[6-(morpholin-4-yl)-9H-purin-8-yl]phenyl}-2-[3-(pyridin-3-yl)-1H-pyrazol-5-yl]acetamide] | fully inhibited the cell viability | No activity | partial effect | IC50 (MV4-11 (MLL-AF4); [19]): 850 nM; IC50 (MV4-11 (MLL-AF4); [20]): 870 nM; inhibition of cell viability (in words) (MV4-11 (MLL-AF4)): partial effect
1230 | 850 | 110 | 692 | 389 | 690 | 390 | 480 | 470 | 260 | 660 | 513 | 320 | 420 | 661 | 650 | 500 | Cn1nc(-c2cccnc2)cc1CC(=O)Nc1ccc(-c2cc3c(N4CCOCC4)ncnc3[nH]2)cc1 [Compound 11, 2-[1-methyl-3-(pyridin-3-yl)-1H-pyrazol-5-yl]-N-{4-[4-(morpholin-4-yl)-7H-pyrrolo[2,3-d]pyrimidin-6-yl]phenyl}acetamide] | fully inhibited cell viability | fully inhibited cell viability | fully inhibited cell viability | IC50 (RS4-11 (MLL-AF4); RS4-11 (MLL-AF4), T7, read-out: IC50 T7): 851 nM; IC50 (MV4-11 (MLL-AF4); [19]): 420 nM; IC50 (MV4-11 (MLL-AF4); [20]): 310 nM; IC50 (MV4-11 (MLL-AF4); MV4-11 (MLL-AF4), T4 (Day 4), read-out: IC50 T4 (Day 4)): 646 nM; IC50 (MV4-11 (MLL-AF4); MV4-11 (MLL-AF4), T7, read-out: IC50 T7): 501 nM; inhibition of cell viability (in words) (MV4-11 (MLL-AF4)): fully inhibited cell viability
– | – | – | – | – | – | – | – | – | 324 | – | – | – | – | – | – | – | O=C(Nc1ccc(-c2cc3c(N4CCOCC4)ncnc3[nH]2)cc1)Nc1cc(-c2cccnc2)n[nH]1 [Compound 9, 1-{4-[4-(morpholin-4-yl)-7H-pyrrolo[2,3-d]pyrimidin-6-yl]phenyl}-3-[3-(pyridin-3-yl)-1H-pyrazol-5-yl]urea] | – | – | – | IC50 (MOLM-13 [1]; 264 h, MOLM-13, Day 11, read-out: MOLM-13 Day 11 IC50): 155 nM; IC50 (MOLM-13 [2]; [21]): 520 nM; IC50 (MOLM-13 [2]; [22]): 340 nM; IC50 (MV4-11; [21]): 500 nM; IC50 (MV4-11; [22]): 430 nM
